Drawing on article PMC7698151, “Evidence for Pentapeptide-Dependent and Independent CheB Methylesterases” (International Journal of Molecular Sciences, 2020), this text covers Kd for two substances.

Experiment [1] has as its system CheR from E. coli. Conditions: cited from earlier work. An excerpt:
This pentapeptide, NWETF, represents an additional binding site for CheR and CheB [8, 9]. […] St ...

Experiment [2] addresses T1, CheB2 D55E mutant protein (Pseudomonas aeruginosa, UniProt Q9I6V9, D55E).
T1 construct: His-tag (pET28b) (N); made in house; host or cells: E. coli BL21 (DE3)
T1 sequence (Q9I6V9 1-349 D55E): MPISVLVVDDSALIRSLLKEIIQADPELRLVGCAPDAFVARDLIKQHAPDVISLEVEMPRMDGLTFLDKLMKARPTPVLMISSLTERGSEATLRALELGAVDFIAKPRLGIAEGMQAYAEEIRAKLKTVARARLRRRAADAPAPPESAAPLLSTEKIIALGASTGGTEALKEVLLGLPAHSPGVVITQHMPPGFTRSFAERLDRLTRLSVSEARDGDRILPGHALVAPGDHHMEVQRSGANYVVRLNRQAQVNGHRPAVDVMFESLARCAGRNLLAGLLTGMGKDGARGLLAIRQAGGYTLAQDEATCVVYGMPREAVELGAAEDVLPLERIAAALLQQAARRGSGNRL
Nature of the experiment: Microcalorimetric titration (ITC) of the CheB2 D55E mutant with the GWEEF peptide. Type of experiment: binding, Pseudomonas aeruginosa PAO1.
Procedure: (§1) All experiments were conducted on a VP microcalorimeter (Microcal, Amherst, MA, USA) at 25 °C. For the analysis of the CheB homologs of P. aeruginosa, 15–40 μM of proteins (dialyzed into 5-mM Tris/HCl, 5-mM Pipes, and 5-mM Mes, pH 7.0) were placed into the sample cell and titrated with 1–7-mM solution of the GWEEF peptide (synthesized by Biomedal S.L., Seville, Spain). […] All ligand solutions were prepared in dialysis buffer immediately before use. The mean enthalpies measured from the injection of the peptide into the buffer were subtracted from the raw titration data prior to data analysis with the “one binding site model” of the MicroCal version of ORIGIN.

Experiment [3] concerns the target T2, CheB2 (Pseudomonas aeruginosa, UniProt Q9I6V9).
T2 construct: His-tag (pET28b) (N); made in house; host or cells: E. coli BL21 (DE3)
Nature of the experiment: Microcalorimetric titration (ITC) of CheB2 with the McpB pentapeptide. Details: species or system Pseudomonas aeruginosa PAO1. Conditions: 25 °C, 15-40 μM protein in 5-mM Tris/HCl, 5-mM Pipes, 5-mM Mes, pH 7.0, titrated with 1-7 mM peptide, one binding site model, read-out: dissociation constant (KD).
Procedure: To verify which CheB homolog interacts with this peptide, the four CheB homologs were overexpressed in E. coli, purified, and submitted to microcalorimetric titrations with the pentapeptide of the McpB receptor, GWEEF.
Microcalorimetric titrations of the four CheB homologs (15 to 40 μM) with 14-μL aliquots (1 to 7 mM) of the GWEEF pentapeptide. […] Data were fitted using the “one binding site model” of the MicroCal version of ORIGIN.
as §1

Several values for one entry are separate records, joined by “and”; a condition that tells them apart may be missing. Identical values can stand only once. Where no end group is shown, it is not given here.

T2 sequence (Q9I6V9 whole entry): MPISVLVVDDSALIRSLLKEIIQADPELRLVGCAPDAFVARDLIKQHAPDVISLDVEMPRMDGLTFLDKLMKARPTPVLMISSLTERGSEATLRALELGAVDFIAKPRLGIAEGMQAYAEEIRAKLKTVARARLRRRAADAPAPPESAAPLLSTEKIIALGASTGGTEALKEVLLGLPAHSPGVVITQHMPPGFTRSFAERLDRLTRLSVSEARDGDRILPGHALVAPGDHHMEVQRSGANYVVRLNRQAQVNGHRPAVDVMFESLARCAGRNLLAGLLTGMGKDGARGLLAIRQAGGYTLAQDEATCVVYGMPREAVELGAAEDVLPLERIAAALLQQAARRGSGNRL

For the substance “NWETF [C-terminal pentapeptide of E. coli Tar/Tsr and of eight P. atrosepticum SCRI1043 chemoreceptors]”, the Kd in experiment [1] was 2 µM and ~2 µM.
Take GWEEF [GWEEF]: the Kd in experiment [2] was 56 ± 14 µM; in experiment [3], 0.093 mM.
